From PMC5648763, “Novel cycloneolignans from Vernicia fordii with inhibitory effects on over-activation of BV2 cells in vitro” (Scientific Reports, 2017)

What was measured:
Format in all cases: cell-based, murine
[1] = test system: NO production in LPS-induced BV2 cells; assay: Nitrite assay (Griess reaction): NO production in LPS-induced BV2 cells; conditions: Mus musculus, BV-2, LPS (100 ng/ml)-activated BV2 cells, 24 h, read-out: Inhibitory effect IC50 on NO production (compounds)
Description: (§1) Figure 5 Effect of compounds 1 and 2 on LPS-induced NO production in microglial cells. (A) BV-2 cells were treated with compounds 1 and 2 in the presence of LPS (100 ng/ml) for 24 h at the indicated concentrations. Cell viability was detected by MTT assay. (B) BV-2 cells were treated with compounds 1 and 2 in the presence of LPS (100 ng/ml) for 24 h. NO production was tested by Griess reaction. Data are expressed as means ± SEM (n = 3). ^#P < 0.05 compared with the control group, *P < 0.05 compared with LPS group.
(§2) The murine microglial cell line BV-2 was from Shanghai Institutes for Biological Sciences, Chinese Academy of Sciences (kindly provided by Prof. Y.Q. Guo, Nankai University, China). BV-2 cells were grown (37 °C and 5% CO2) in DMEM supplemented with 10% FBS, 100 U/ml penicillin and 100 μ g/ml streptomycin. Stock cells were passaged about three times/week and used within 8 passages.
The production of NO in LPS-induced BV2 cells was assayed by Griess reaction[9]–[12]. The cells (2 × 10^4 cells/well) were plated into 96-well plates and incubated with tested samples with 100 ng/mL LPS. Twenty-four hours later, Griess reagent was added into the supernatant at room temperature. And the plates were read on a plate reader at 540 nm after fifteen minutes.

[2] = Cell viability / cytotoxicity by MTT method; conditions: mouse
Description: as §1, §2
(§3) Viability of BV2 cells was tested by MTT method described in our previous work[9]–[12]. The cells (2 × 10^4 cells / well) were plated into 96-well plates and were pretreated with tested samples at different concentrations for 24 h. After the supernatant taken away, MTT (0.25 mg/ml) was added into the plate and incubated for 4 h at 37 °C. Finally, the formazan crystals were dissolved in DMSO and the absorbance of each well was recorded at 490 nm using a plate reader (Bio-Tek, Winooski, VT, USA).

[3] = test system: BV2 cells; assay: Cell viability / cytotoxicity by MTT method
Description: as §1, §2, §3

[4] = test system: IL-6 mRNA expression in BV2 cells; assay: LPS-induced IL-6 mRNA expression in BV-2 cells (Real-time PCR); conditions: 10 μM, pretreated 2 h, then LPS (100 ng/mL) 4 h, qRT-PCR
Description: (§4) Figure 7 Effects of compounds 1, 1a, 1b, 2, 2a and 2b on LPS-induced IL-6 and IL-1β mRNA expression in microglial cells. BV-2 microglial cells were pretreated with compounds1, 2, 1a, 1b, 2a and 2b (10 μM) for 2 h and then stimulated with LPS (100 ng/mL). Total RNA was isolated 4 h after LPS treatment, the mRNA levels of IL-6 and IL-1β were measured by qRT-PCR. Data are expressed as means ± SEM (n = 3). ^#P < 0.05 compared with the control group, *P < 0.05 compared with LPS group. Mino stands for minocycline.
as §2
(§5) BV2 cells (4 × 10^5 cells/ml) were plated into 6-well plates and were pretreated with each sample for 2 h and then induced by LPS for 4 h. After that the total RNA was isolated using Trizol and converted to cDNA. CFX ConnectTM real-time PCR detection system (Bio-Rad, Hercules, CA, USA) was used for the experiment. The level of GAPDH gene was used for standardization.

[5] = test system: IL-1β mRNA expression in BV2 cells; assay: LPS-induced IL-1β mRNA expression in BV-2 cells (Real-time PCR); conditions: 10 μM, pretreated 2 h, then LPS (100 ng/mL) 4 h, qRT-PCR
Description: as §4, §2, §5

SMILES	IC50 [1]	IC50 at 24 h [2]	Cytotoxicity at the effective concentrations [3]	Effect on LPS-induced IL-6 mRNA expression [4]	Effect on LPS-induced IL-1β mRNA expression [5]
COC1CC2(O)OCC(c3cc(O)c(O)cc31)C2c1ccc(O)c(O)c1 (racemic) [Compound 2, (±) methoxylverniciasin A]	17.4 ± 0.87 µM	> 100 µM	without obvious cytotoxicities	did not show inhibitory effect	did not show inhibitory effect
Oc1ccc(C2C3COC2(O)CC(O)c2cc(O)c(O)cc23)cc1O (stereo not shown) [Compound 1, Verniciasin A]	1.46 ± 0.91 µM	> 100 µM	without obvious cytotoxicities	suppressed	suppressed
Oc1ccc(C2C3COC2(O)CC(O)c2cc(O)c(O)cc23)cc1O (stereo not shown) [Compound 1a, 7R, 8R, 7′R, 9′S-verniciasin A]	–	–	–	significant inhibitory action	significant inhibitory action
Oc1ccc(C2C3COC2(O)CC(O)c2cc(O)c(O)cc23)cc1O (stereo not shown) [Compound 1b, 7S, 8S, 7′S, 9′R- verniciasin A]	–	–	–	did not display inhibitory activity	did not display inhibitory activity
COC1CC2(O)OCC(c3cc(O)c(O)cc31)C2c1ccc(O)c(O)c1 (stereo not shown) [Compound 2a, 7R, 8R, 7′R, 9′S−7′-methoxylverniciasin A]	–	–	–	moderate inhibitory effect	moderate inhibitory effect
